Data reported in patent US6462069B2, “Compounds, pharmaceutical compositions, and methods for inhibiting protein kinases” (Agouron Pharmaceuticals, Inc., priority 2000, dated 2002).

Experiments:
[1] = biological target: T1, CDK2/cyclin A complex (Homo sapiens, UniProt P24941); experiment: Inhibition of CDK2/Cyclin A retinoblastoma kinase activity; format: biochemical; settings: for Ki: apparent Ki
T1 construct: made in house; host or cells: CDK2: insect cells (baculovirus); cyclin A: E. coli
Experimental: (§1) Cyclin-dependent kinase activity was measured by quantifying the enzyme-catalyzed, time-dependent incorporation of radioactive phosphate from [^32P]ATP or [^33P]ATP into a protein substrate. Unless noted otherwise, assays were performed in 96-well plates in a total volume of 50 μL, in the presence of 10 mM HEPES (N-[2-hydroxyethyl]piperazine-N′-[2-ethanesulfonic acid]) (pH 7.4). 10 mM MgCI2, 25 μM adenosine triphosphate (ATP), 1 mg/mL ovalbumin, 5 μg/mL leupeptin, 1 mM dithiothreitol, 10 mM beta-glycerophosphate, 0.1 mM sodium vanadate, 1 mM sodium fluoride, 2.5 mM ethylene glycol-bis(β-aminoethyl ethKer)-N,N,N′N′-tetraacetic acid (EGTA), 2% (v/v) dimethylsulfoxide, and 0.03-0.4 μCi [^32/33P]ATP per reaction. Reactions were initiated with enzyme, incubated at 30° C. and terminated after 20 minutes by the addition ofethylenediaminetetraacetic acid (EDTA) to 250 mM. The phosphorylated substrate was then captured on a nitrocellulose or phosphocellulose membrane using a 96-well filtration manifold, and unincorporated radioactivity was removed by repeated washing with 0.85% phosphoric acid. Radioactivity was quantified by exposing the dried membranes to a phosphorimager.
(§2) Apparent Ki values were measured by assaying enzyme activity in the presence of different inhibitor compound concentrations and subtracting the background radioactivity measured in the absence of enzyme. Inhibition data were fit to an equation for competitive inhibition using Kaleidagraph (Synergy Software), or were fit to an equation for competitive tight-binding inhibition using the software KineTic (BioKin, Ltd.).
CDK2 was purified using published methodology (Rosenblatt et al., “Purification and Crystallization of Human Cyclin-dependent Kinase 2,” J. Mol. Biol., vol. 230, pp. 1317-1319 (1993)) from insect cells that had been infected with a baculovirus expression vector. […] Ki values were measured as described above.

[2] = biological target: T2, CDK4/cyclin D3 complex (Homo sapiens, UniProt P11802); experiment: Inhibition of CDK4/Cyclin D retinoblastoma kinase activity; format: biochemical; settings: for Ki: apparent Ki
T2 construct: made in house; host or cells: insect cells co-infected with baculovirus expression vectors
T2 sequence (P11802 whole entry): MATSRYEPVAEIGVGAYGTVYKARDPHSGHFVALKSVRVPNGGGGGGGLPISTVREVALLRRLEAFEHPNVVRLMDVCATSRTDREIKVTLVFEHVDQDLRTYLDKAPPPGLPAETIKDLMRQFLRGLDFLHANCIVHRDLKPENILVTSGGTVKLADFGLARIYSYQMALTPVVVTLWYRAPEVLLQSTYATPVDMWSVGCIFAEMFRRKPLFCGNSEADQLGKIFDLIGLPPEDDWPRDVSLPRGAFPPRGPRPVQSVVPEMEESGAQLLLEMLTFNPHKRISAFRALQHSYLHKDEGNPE
T2 sequence (P30281 whole entry partner): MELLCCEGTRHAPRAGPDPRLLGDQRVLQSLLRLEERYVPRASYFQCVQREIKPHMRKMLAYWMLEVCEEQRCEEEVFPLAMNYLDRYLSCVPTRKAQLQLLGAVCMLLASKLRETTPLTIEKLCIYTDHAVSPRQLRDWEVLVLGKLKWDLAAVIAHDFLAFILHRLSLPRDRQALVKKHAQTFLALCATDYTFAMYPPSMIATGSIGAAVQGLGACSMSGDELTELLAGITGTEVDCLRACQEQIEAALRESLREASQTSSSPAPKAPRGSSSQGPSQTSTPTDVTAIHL
Experimental: as §1, §2
A complex of human CDK4 and cyclin D3, or a complex of human CDK4 and genetically truncated (1-264) cyclin D3, was purified using traditional biochemical chromatographic techniques from insect cells that had been co-infected with the corresponding baculovirus expression vectors ((see e.g., Meijer and Kim, “Chemical Inhibitors of Cyclin-Dependent Kinases,” Methods in Enzymol,. vol. 283, pp. 113-128 (1997)). The enzyme complex (5 or 50 nM) was assayed with 0.3-0.5 μg of purified recombinant retinoblastoma protein fragment (Rb) as a substrate. The engineered Rb fragment (residues 386-928 of the native retinoblastoma protein; 62.3 kDa) contains the majority of the phosphorylation sites found in the native 106-kDa protein, as well as a tag of six histidine residues for ease of purification. Phosphorylated Rb substrate was captured by microfiltration on a nitrocellulose membrane and quantified using a phosphorimager as described above. For measurement of tight-binding inhibitors, the enzyme complex concentration was lowered to 5 nM, and the assay duration was extended to 60 minutes, during which the time-dependence of product formation was linear.

[3] = biological target: T3, full-length human CHK1 (FL-CHK1) (Homo sapiens, UniProt O14757); experiment: CHK1 assay (coupled spectrophotometric); format: biochemical
T3 construct: C-terminally His-tagged full-length human CHK1 (FL-CHK1); made in house; host or cells: baculovirus/insect cell system
T3 sequence (O14757 1-476): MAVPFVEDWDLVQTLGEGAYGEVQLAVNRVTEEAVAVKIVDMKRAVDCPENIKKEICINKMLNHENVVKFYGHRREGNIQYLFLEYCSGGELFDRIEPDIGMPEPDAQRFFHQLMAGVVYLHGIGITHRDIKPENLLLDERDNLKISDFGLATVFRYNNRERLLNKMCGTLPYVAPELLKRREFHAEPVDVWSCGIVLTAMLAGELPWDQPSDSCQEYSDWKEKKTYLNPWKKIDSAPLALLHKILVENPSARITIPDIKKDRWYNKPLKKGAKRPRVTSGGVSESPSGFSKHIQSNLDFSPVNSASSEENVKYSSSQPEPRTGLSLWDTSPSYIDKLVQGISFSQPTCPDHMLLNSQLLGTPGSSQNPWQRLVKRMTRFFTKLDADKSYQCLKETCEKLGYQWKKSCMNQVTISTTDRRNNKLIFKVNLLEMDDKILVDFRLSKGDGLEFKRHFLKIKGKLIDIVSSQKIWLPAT
Description: C-terminally His-tagged full-length human CHK1 (FL-CHK1) was expressed using the baculovirus/insect cell system. It contains 6 histidine residues (6×His-tag) at the C-terminus of the 476 amino acid human CHK1. The protein was purified by conventional chromatographic techniques.
The production of ADP from ATP that accompanies phosphoryl transfer to the synthetic substrate peptide Syntide-2 ([…]) was coupled to oxidation of NADH using phosphoenolpyruvate (PEP) through the actions of pyruvate kinase (PK) and lactic dehydrogenase (LDH). The oxidation of NADH was monitored by following the decrease of absorbance at 340 nm (∈340=6.22 cm^−1 mM^−1) using a HP8452 spectrophotometer. Typical reaction solutions contained: […] PEP; 0.15 mM NADH; 28 units of LDH/ml; 16 units of PK/ml; 3 mM DTT; 0.125 mM Syntide-2: 0.15 mM ATP; 25 mM MgCI2 in 50 mM TRIS, pH 7.5; and 400 mM NaCl. Assays were initiated with 10 nM of FL-CHK1. Ki values were determined by measuring initial enzyme activity in the presence of varying concentrations of test compounds. The data were analyzed using Enzyme Kinetic and Kaleidagraph software.

[4] = system: HCT 116 cell line; experiment: Inhibition of cell growth, MTT tetrazolium salt assay; format: cell-based; settings: Homo sapiens, HCT116 cells; for IC50: 50% inhibition of growth, read-out: HCT116 IC 50
Experimental: Inhibition of cell growth was measured using the tetrazolium salt assay, which is based on the ability of viable cells to reduce 3-(4,5-dimethylthiazol-2-yl)-2,5-[2H]-diphenyltetrazolium bromide (MTT) to formazan (Mossman, Journal of Immunological Methods, vol.65, pp. 55-58(1983)). The water-insoluble purple formazan product was then detected spectrophotometrically. The HCT 116 cell line was grown in 96-well plates. Cells were plated in the appropriate medium at a volume of 135 μl/well in McCoy's 5A Medium. Plates were incubated for four hours before addition of inhibitor compounds. Different concentrations of inhibitor compounds were added in 0.5% (v/v) dimethylsulfoxide (15 μL/well), and cells were incubated at 37° C. (5% CO2) for four to six days (depending on cell type). At the end of the incubation, MTT was added to a final concentration of 0.2 mg/mL, and cells were incubated for 4 hours more at 37° C. After centrifugation of the plates and removal of medium, the absorbance of the formazan (solubilized in dimethylsulfoxide) was measured at 540 nm. The concentration of inhibitor compound causing 50% inhibition of growth was determined from the linear portion of a semi-log plot of inhibitor concentration versus percentage inhibition. All results were compared to control cells treated only with 0.5% (v/v) dimethylsulfoxide.

SMILES | Ki [1] [µM] | Ki [2] [µM] | also measured
COc1cccc(-c2cccc3c(-c4cc(Nc5ccc(S(N)(=O)=O)cc5)n[nH]4)csc23)c1 [Compound Q, 4-{5-[7-(3-Methoxy-phenyl)-benzo[b]thiophen-3-yl]-1H-pyrazol-3-ylamino]-benzenesulfonamide] | – | – | inhibition at 5 µM ([1]; at 5 μM, read-out: Percent Inhibition CDK2/A): 21%; inhibition at 5 µM ([2]; at 5 μM, read-out: Percent Inhibition CDK4/D): 13%
Oc1cccc(Nc2cc(-c3csc4ccccc34)[nH]n2)c1 [Compound N, 3-(Benzo[b]thiophen-3-yl-1H-pyrazol-3-ylamino)-phenol] | 2.4 | 4.9 | –
C(=C\c1cscc1-c1cc(Nc2ccccc2)n[nH]1)/c1ccccc1 [Compound F, Phenyl-[5-(4-trans-styryl-thiophen-3-yl]-1H-pyrazol-3-yl]-amine] | – | – | inhibition at 10 µM ([1]; at 10 μM, read-out: Percent Inhibition CDK2/A): 37%; inhibition at 10 µM ([2]; at 10 μM, read-out: Percent Inhibition CDK4/D): 25%
Oc1ccc(Nc2cc(-c3csc4ccccc34)[nH]n2)cc1 [Compound L, 4-(Benzo[b]thiophen-3-yl-1H-pyrazol-3-ylamino)-phenol] | 2 | 5.3 | –
c1ccc(Nc2cc(-c3c[nH]c4ccccc34)[nH]n2)cc1 [Compound J, [5-(1H-Indol-3-yl)-1H-pyrazol-3-yl]-phenyl-amine] | 15 | 12 | Ki [3]: 18 µM
NS(=O)(=O)c1ccc(Nc2cc(-c3c[nH]c4ccccc34)[nH]n2)cc1 [Compound X, 4-[5-(1H-Indol-3-yl)-1H-pyrazol-3-ylamino]-Benzenesulfonamide] | 0.39 | 12 | Ki [3]: 1.8 µM
c1ccc(Nc2n[nH]c3c2-c2ccccc2C3)cc1 [Compound D, (1,8-Dihydro-indeno[2,1-c]pyrazol-3-yl)-phenyl-amine] | 25 | 7.4 | –
c1ccc(Nc2cc(-c3cccnc3)[nH]n2)cc1 [Compound C] | 61 | 59 | Ki [3]: 1.5 µM
C1=C(c2cscc2-c2cc(Nc3ccccc3)n[nH]2)CCCC1 [Compound G, [5-(4-Cyclohex-1-enyl-thiophen-3-yl)-1H-pyrazol-3-yl]-phenyl-amine] | 10 | 10 | –
Brc1cscc1-c1cc(Nc2ccccc2)n[nH]1 [Compound E, [5-(4-Bromo-thiophen-3-yl)-1H-pyrazol-3-yl]1-phenyl-amine] | 22 | 9.7 | –
COc1ccc2c(-c3cc(Nc4ccc(S(N)(=O)=O)cc4)n[nH]3)csc2c1 [Compound V, 4-[5-(6-Methoxy-benzo[b]Thiophen-3-yl)-1H-pyrazol-3-ylamino]-Benzenesulfonamide] | 0.27 | 12 | –

Now from value to molecule, other results behind:

Ki [1] [µM] | Ki [2] [µM] | SMILES | also measured
6.3 | 4.7 | COc1ccc(Nc2cc(-c3csc4ccccc34)[nH]n2)cc1 [Compound K, (5-Benzo[b]thiophen-3-yl-1H-pyrazol-3-yl)-4-(methoxy-phenyl)-amine] | –
21 | 4.1 | COc1cccc(Nc2cc(-c3csc4ccccc34)[nH]n2)c1 [Compound M] | –
0.08 | 2.3 | NS(=O)(=O)c1ccc(Nc2cc(-c3csc4ccc(Br)cc34)[nH]n2)cc1 [Compound U, {5-[3-(5-Bromo)-benzo[b]Thiophenyl]-1-H-pyrazol-3-yl}-phenylamine-4-Sulfonamide] | –
3 | 3 | c1ccc(Nc2cc(-c3cscc3C3CCCCC3)[nH]n2)cc1 [Compound H, [5-(4-Cyclohexyl-thiophen-3-yl)-1H-pyrazol-3-yl]-phenyl-amine] | –
2.7 | 3.3 | NS(=O)(=O)c1ccc(Nc2cc(-c3csc4c(-c5cccc(O)c5)cccc34)[nH]n2)cc1 [Compound R, 4-{5-[7-(3-Hydroxy-phenyl)-benzo[b]thiophen-3-yl]-1H pyrazol-3-ylamino]-benzenesulfonamide] | inhibition at 10 µM ([3]; at 10 μM, read-out: Percent Inhibition CHK1): 8%
– | 4.7 | c1ccc(Nc2cc(-c3cscc3Sc3ccccc3)[nH]n2)cc1 [Compound I, Phenyl-[5-(4-phenylsulfanyl-thiophene-3-yl)-1H-pyrazol-3-yl]-amine] | –
3.2 | 2.1 | NS(=O)(=O)c1ccc(Nc2cc(-c3csc4c(-c5ccc(O)cc5)cccc34)[nH]n2)cc1 [Compound T, 4-{5-[7-(4-Hydroxy-phenyl)-benzo[b]thiophen-3-yl]-1H-pyrazol-3-ylamino]-benzenesulfonamide] | –
0.11 | 2.1 | NS(=O)(=O)c1ccc(Nc2cc(-c3csc4c(Br)cccc34)[nH]n2)cc1 [Compound P, 4-[5-(7-Bromo-benzo[b]thiophen-3-yl)-1H-pyrazol-3-ylamino]-benzenesulfonamide] | –
0.062 | 1.6 | NS(=O)(=O)c1ccc(Nc2cc(-c3csc4ccccc34)[nH]n2)cc1 [Compound O] | IC50 [4]: 9.5 µM; IC90 ([4]; read-out: HCT116 IC 90): 24 µM
0.016 | 0.9 | NS(=O)(=O)c1ccc(Nc2cc(-c3csc4cc(O)ccc34)[nH]n2)cc1 [Compound W, 4-[5-(6-Hydroxy-benzo[b]Thiophen-3-yl)-1H-pyrazol-3-ylamino]-Benzenesulfonamide] | IC50 [4]: 20 µM
